Results on 22 compounds are retold here after ChEMBL document CHEMBL3124828, “A 2,6,9-hetero-trisubstituted purine inhibitor exhibits potent biological effects against multiple myeloma cells” (Bioorg Med Chem, 2013).

Calls of active or inactive are those of the source. The calls are words filed in the database; no cut-off is given here.

For test [1], the target named is Signal transducer and activator of transcription 3 (Homo sapiens) (UniProt P40763). Nature of the test: Displacement of FAM-GpYLPQTV-NH2 from full-length Stat3 SH2 domain (unknown origin) up to 400 uM by fluorescence polarization.
Sequence of Signal transducer and activator of transcription 3 (Homo sapiens) (P40763 whole entry, the tested form may be a part): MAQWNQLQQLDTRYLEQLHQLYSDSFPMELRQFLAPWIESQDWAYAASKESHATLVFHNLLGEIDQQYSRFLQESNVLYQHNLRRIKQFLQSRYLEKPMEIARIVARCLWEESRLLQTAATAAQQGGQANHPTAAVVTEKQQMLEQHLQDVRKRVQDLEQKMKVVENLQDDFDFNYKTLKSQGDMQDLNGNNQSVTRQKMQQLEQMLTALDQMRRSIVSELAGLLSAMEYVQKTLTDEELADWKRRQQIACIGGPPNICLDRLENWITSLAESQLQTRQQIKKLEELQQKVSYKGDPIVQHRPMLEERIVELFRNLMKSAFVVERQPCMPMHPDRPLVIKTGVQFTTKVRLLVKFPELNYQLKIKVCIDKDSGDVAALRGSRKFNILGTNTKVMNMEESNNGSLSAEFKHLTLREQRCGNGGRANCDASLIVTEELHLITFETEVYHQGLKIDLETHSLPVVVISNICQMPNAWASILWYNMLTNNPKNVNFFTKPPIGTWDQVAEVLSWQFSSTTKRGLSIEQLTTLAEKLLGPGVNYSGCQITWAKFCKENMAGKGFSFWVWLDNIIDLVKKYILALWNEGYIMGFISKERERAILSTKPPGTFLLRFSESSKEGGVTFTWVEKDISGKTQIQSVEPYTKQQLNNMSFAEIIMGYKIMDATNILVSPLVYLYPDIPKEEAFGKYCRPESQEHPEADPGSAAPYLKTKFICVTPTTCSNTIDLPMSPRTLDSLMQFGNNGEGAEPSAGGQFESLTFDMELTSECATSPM
Test [2] concerns OCI-AML2. Briefly: Cytotoxicity against human OCI-AML2 cells after 72 hrs by MTS assay. The class given is functional, cell-based. On the technique in general: Formazan colour is commonly taken as a measure of viable cells.
The test system of test [3] is DU-145. Briefly: Cytotoxicity against human DU145 cells after 72 hrs by MTS assay. Type of test: functional, cell-based.
Test [4] has as its system MDA-MB-468. Briefly: Cytotoxicity against human MDA-MB-468 cells after 72 hrs by MTS assay. Type of test: functional, cell-based.
For test [5], the system named is JJN-3. Briefly: Induction of apoptosis in human JJN-3 cells assessed as late apoptotic cells at 15 uM after 48 hrs by annexinV/propidium iodide staining (reference value: 9.59%). Type of test: functional.
A short description of test [6]: Induction of apoptosis in human XG6 cells assessed as viable cells at 15 uM after 48 hrs by annexinV/propidium iodide staining (reference value: 83.3%). To be noted: XG6, 48 h, read-out: Activity. The class given is functional.
The nature of test [7]: Induction of apoptosis in human XG6 cells assessed as early apoptotic cells at 15 uM after 48 hrs by annexinV/propidium iodide staining (reference value: 8.62%). The class given is functional.
Test [8] in a line: Induction of apoptosis in human XG6 cells assessed as late apoptotic cells at 15 uM after 48 hrs by annexinV/propidium iodide staining (reference value: 7.78%). The class given is functional.
In test [9] the test system is JJN-3. Nature of the test: Induction of apoptosis in human JJN-3 cells assessed as viable cells at 15 uM after 48 hrs by annexinV/propidium iodide staining (reference value: 75.9%). The class given is functional. To be noted: JJN-3, 48 h, read-out: Activity.
The test system of test [10] is JJN-3. Nature of the test: Induction of apoptosis in human JJN-3 cells assessed as early apoptotic cells at 15 uM after 48 hrs by annexinV/propidium iodide staining (reference value: 13.3%). Type of test: functional.

For the compound `Fc1ccc(Nc2nc(NCc3ccc(C4CCCCC4)cc3)nc3c2ncn3CCc2nnn[nH]2)cc1`, the inhibition entry in test [1] was “inactive”. Also, the result in test [2], in test [3] and in [4] was inactive.
As to `NS(=O)(=O)OCCn1cnc2c(N3CCOCC3)nc(NC(=O)C3CCCCC3)nc21`, the inhibition result in [1] is “inactive”. Also, the result in [2], in test [3] and in test [4] was inactive.
As to `c1coc(CNc2nc(NCc3ccc(C4CCCCC4)cc3)nc3c2ncn3CCc2nnn[nH]2)c1`, the inhibition entry in test [1] was “inactive”. Also, the outcome in [2], in [3] and in [4] was inactive.
For the compound `CCOC(=O)Cn1cnc2c(Nc3ccc(F)cc3)nc(NCc3ccc(C4CCCCC4)cc3)nc21`, the inhibition entry in test [1] is “inactive”. Also, the outcome in test [2], in test [3] and in [4] was inactive.
Turning to `CC(=O)OCOC(=O)Cn1cnc2c(Nc3ccc(F)cc3)nc(NCc3ccc(C4CCCCC4)cc3)nc21`, in [1], the inhibition entry was “inactive”. Moreover, the result in test [2], in test [3] and in test [4] was inactive.
For the compound `CC(=O)OCOC(=O)Cn1cnc2c(NCc3ccco3)nc(NCc3ccc(C4CCCCC4)cc3)nc21`, the result in test [2], in test [3] and in test [4] was inactive.
As to `NS(=O)(=O)OCCn1cnc2c(NCc3ccco3)nc(NCc3ccc(C4CCCCC4)cc3)nc21`, the result in [2], in test [3] and in test [4] was inactive.
Consider `c1cc(C2CCCCC2)ccc1CNc1nc(N2CCOCC2)c2ncn(CCc3nnn[nH]3)c2n1`, for which the outcome in [2], in [3] and in [4] was inactive.
`CC(=O)OCOC(=O)Cn1cnc2c(Oc3ccc([N+](=O)[O-])cc3)nc(NCc3ccc(C4CCCCC4)cc3)nc21`: the result in [2], in test [3] and in [4] was inactive.
`CC(C)CNc1nc(NCc2ccc(C3CCCCC3)cc2)nc2c1ncn2CC(=O)OCOC(=O)C(C)(C)C`: the outcome in [2], in test [3] and in test [4] was inactive.
As to `CCOC(=O)Cn1cnc2c(NCCC(C)C)nc(NCc3ccc(C4CCCCC4)cc3)nc21`, the result in [2], in test [3] and in test [4] was inactive.
Take `CC(C)CCNc1nc(NCc2ccc(C3CCCCC3)cc2)nc2c1ncn2CC(=O)OCOC(=O)C(C)(C)C`: the outcome in test [2], in [3] and in test [4] was inactive.
Regarding `N[C@@H](Cc1ccc(N(CCCl)CCCl)cc1)C(=O)O` [MELPHALAN], the Activity in test [5] stood at 23.7%; in [7] it was 34%; in [8] it was 34.8%; in test [10], 19.3%. Also, the values for the viability at 15 µM in [6] and in [9] were 30.8% and 54.5%, respectively.
Take `CC(C)CCNc1nc(NCc2ccc(C3CCCCC3)cc2)nc2c1ncn2CCOS(N)(=O)=O`: the outcome in [2], in [3] and in [4] was inactive.
Consider `CC(C)(C)C(=O)OCOC(=O)Cn1cnc2c(Oc3ccc([N+](=O)[O-])cc3)nc(NCc3ccc(C4CCCCC4)cc3)nc21`, for which the outcome in [2], in test [3] and in test [4] was inactive.
As to `O=[N+]([O-])c1ccc(Oc2nc(NCc3ccc(C4CCCCC4)cc3)nc3c2ncn3CCc2nnn[nH]2)cc1`, the outcome in [2], in test [3] and in [4] was inactive.
As for `CC(C)CNc1nc(NCc2ccc(C3CCCCC3)cc2)nc2c1ncn2CCOS(N)(=O)=O`, the result in [2], in test [3] and in test [4] was inactive.
In the case of `NS(=O)(=O)OCCn1cnc2c(NC3CCCC3)nc(NCc3ccc(C4CCCCC4)cc3)nc21`, the outcome in [2], in [3] and in [4] was inactive.
In the case of `CCOC(=O)Cn1cnc2c(Oc3ccc([N+](=O)[O-])cc3)nc(NCc3ccc(C4CCCCC4)cc3)nc21`, the outcome in test [2], in test [3] and in test [4] was inactive.
`CCOC(=O)Cn1cnc2c(NCc3ccco3)nc(NCc3ccc(C4CCCCC4)cc3)nc21`: the outcome in test [2], in test [3] and in test [4] was inactive.
Regarding `CC(=O)OCOC(=O)Cn1cnc2c(N3CCOCC3)nc(NCc3ccc(C4CCCCC4)cc3)nc21`, the outcome in [2], in test [3] and in [4] was inactive.
For `CC(C)(C)C(=O)OCOC(=O)Cn1cnc2c(Nc3ccc(F)cc3)nc(NCc3ccc(C4CCCCC4)cc3)nc21`, the inhibition entry in test [1] is “inactive”. Besides, the outcome in test [2], in test [3] and in test [4] was inactive.
